Assay results: US20080004276A1, “Method for treating non-hodgkin's lymphoma” (priority 2006, published 2008)
Entries after “also recorded” stand apart in the source; their conditions may differ.

Key:
[1] = tested on: Her2; test: IC50 range for inhibition of Her2 degradation (Table 8); assay type: cell-based; conditions: Homo sapiens
Procedure: Human high-Her2 breast carcinoma BT474 (HTB-20), SK-BR-3 (HTB-30) and MCF-7 breast carcinoma (HTB-22) from American Type Culture Collection, VA, USA were grown in Dulbecco's modified Eagle's medium with 4 mM L-glutamine and antibiotics (100 IU/ml penicillin and 100 ug/ml streptomycine; GibcoBRL). To obtain exponential cell growth, cells were trypsinized, counted and seeded at a cell density of 0.5×10^6 cells/ml regularly, every 3 days. All experiments were performed on day 1 after cell passage. […]
After treatment with a compound of the invention, cells were washed twice with 1×PBS/1% FBS, and then stained with anti-Her2-FITC (#340553, BD) for 30 min at 4° C. Cells were then washed three times in FACS buffer before the fixation in 0.5 ml 1% paraformadehydrede. Data was acquired on a FACSCalibur system. Isotype-matched controls were used to establish the non-specific staining of samples and to set the fluorescent markers. A total 10,000 events were recorded from each sample. Data were analysed by using CellQuest software (BD Biosciences).

[2] = tested on: MDA-MB-435S; test: MDA-MB-435S nude mouse xenograft model; assay type: in vivo; conditions: 300 mg/kg IP, 5 times per week for 3 weeks, nude mice; FIG. 4
Procedure: FBS was obtained from Sigma-Aldrich Corp. (St. Louis, Mo., USA), and all other reagents were obtained from Invitrogen Corp. (Carlsbad, Calif., USA). Approximately 4-5×10(6) cells that had been cryopreserved in liquid nitrogen were rapidly thawed at 37° C. and transferred to a 175 cm^2 tissue culture flask containing 50 ml of growth media and then incubated at 37° C. in a 5% CO2 incubator. The growth media was replaced every 2-3 days until the flask became 90% confluent, typically in 5-7 days. To passage and expand the cell line, a 90% confluent flask was washed with 10 ml of room temperature phosphate buffered saline (PBS) and the cells were disassociated by adding 5 ml 1× Trypsin-EDTA (Invitrogen) and incubating at 37° C. until the cells detached from the surface of the flask. To inactivate the trypsin, 5 ml of growth media was added and then the contents of the flask were centrifuged to pellet the cells. The supernatant was aspirated and the cell pellet was resuspended in 10 ml of growth media and the cell number determined using a hemocytometer. […]
Six to eight week old, female Crl:CD-1-nuBR (nude) mice were obtained from Charles River Laboratories (Wilmington, Mass., USA). […] Tumor volumes (V) were calculated by caliper measurement of the width (W), length (L) and thickness (T) of tumors using the following formula: V=[…]×(L×W×T). […]

**Q.** `CCc1cc(-c2nnc(S)n2-c2cccc3ccccc23)c(O)cc1O` [Compound 49, 3-(2,4-Dihydroxy-5-ethyl-phenyl)-4-(naphthalen-1-yl)-5-mercapto-triazole] was tested. Which IC50 [1] did it give?
**A.** The IC50 was < 3000 nM.

**Q.** And the “toxicity (effect on body weights)” value [2]?
**A.** The value was “not associated with significant toxicity; also recorded: not toxic”.
